Measured values from patent US20250082793A1, “MACROCYCLIC COMPOUNDS AND METHODS OF MAKING THE SAME” (JANSSEN BIOTECH, INC., priority 2021, published 2025).

Experiment: Chelation test with La^3+ (HPLC chromatograms prior and subsequent to mixing)
Assay type: physicochemical
Settings: prior vs subsequent to mixing with La^3+

SMILES	chelation of La^3+ indicated by shift in HPLC retention time
O=C(O)c1cccc(CN2CCOCCOCCN(C(c3ccccc3)c3cccc(C(=O)O)n3)CCOCCOCC2)n1 (centres unmarked) [TOPA-[C7]-phenyl, 6-((16-((6-carboxypyridin-2-yl)(phenyl)methyl)-1,4,10,13-tetraoxa-7,16-diazacyclooctadecan-7-yl)methyl)picolinic acid]	rapid chelation of La^3+
CC(C)CCC(c1cccc(C(=O)O)n1)N1CCOCCOCCN(Cc2cccc(C(=O)O)n2)CCOCCOCC1 (centres unmarked) [TOPA-[C7]-isopentyl, 6-((16-(1-(6-carboxypyridin-2-yl)-4-methylpentyl)-1,4,10,13-tetraoxa-7,16-diazacyclooctadecan-7-yl)methyl)picolinic acid]	rapid chelation of La^3+ and Ac-225
